From article PMC4618117, “Synthesis and Antiproliferative Activity of Steroidal Thiosemicarbazone Platinum (Pt(II)) Complexes” (Bioinorganic Chemistry and Applications, 2015)
Like-named read-outs stand apart in the source and are kept apart here.

Experiments:
[1] = tested on: Bel-7404 (human liver carcinoma) cells; assay: MTT antiproliferative assay, Bel-7404; type: cell-based; conditions: for IC50: mean of three independent determinations, read-out: Cytotoxicity IC50 Bel-7404
Experimental: (§1) Melting points were determined on an X4 apparatus (Beijing Tech Instrument Co. Ltd., Beijing, China) and were uncorrected. The ^1H and ^13C NMR spectra were recorded in CDCl3 on a Bruker AV-600 spectrometer at working frequencies 600 and 150 MHz and a Bruker AV-300 spectrometer at working frequencies 300 and 75 MHz, respectively. Chemical shifts are expressed in parts per million (δ) values and coupling constants (J) in Hertz. Infrared spectra were measured with a Thermo Scientific Nicolet IS-10 Spectrophotometer (Thermo Scientific, America). HREIMS was measured on an Agilent 6210 TOFMS instrument (Agilent Technologies, America). The cell proliferation assay was undertaken by a MTT method using 96-well plates on a […] MK3 analysis spectrometer (Thermo Scientific, Shanghai, China).
(§2) The detailed procedure has been reported in our previous work.
(§3) The antiproliferative activities of all steroidal thiosemicarbazones and their Pt(II) metal complexes were determined in vitro on Bel 7404, HeLa, and HEK293T. […] The results are summarized as IC50 values in μM in Table 1.

[2] = tested on: HeLa (human cervical carcinoma) cells; assay: MTT antiproliferative assay, HeLa; type: cell-based; conditions: for IC50: mean of three independent determinations, read-out: Cytotoxicity IC50 HeLa
Experimental: as §1, §2, §3

[3] = MTT antiproliferative assay, HEK293T; type: cell-based; conditions: human, HEK293T normal kidney epithelial cells, mean of three independent determinations, read-out: Cytotoxicity IC50 HEK293T
Experimental: as §1, §2
(§4) The antiproliferative activities of all steroidal thiosemicarbazones and their Pt(II) metal complexes were determined in vitro on Bel 7404, HeLa, and HEK293T.

[4] = tested on: HEK293T (normal kidney epithelial cells); assay: MTT antiproliferative assay, HEK293T; type: cell-based; conditions: mean of three independent determinations, read-out: Cytotoxicity IC50 HEK293T
Experimental: as §1, §2, §4

[5] = Homo sapiens, BEL-7404, MTT assay

Structure (SMILES) | IC50 [1, 5] [µM] | IC50 ([2]; Homo sapiens, HeLa, MTT assay) [µM] | IC50 [3] [µM] | IC50 ([1]; MTT assay) [µM] | Cytotoxicity against Bel 7404 cells (in words) ([1]; MTT assay, verbal summary) | SI Bel 7404 (Selectivity Index) ([1]; ratio IC50 HEK293T versus IC50 Bel 7404) | IC50 ([2]; MTT assay) [µM] | Cytotoxicity against HeLa cells (in words) ([2]; MTT assay, verbal summary) | SI HeLa (Selectivity Index) ([2]; ratio IC50 HEK293T versus IC50 HeLa) | IC50 [4] [µM] | melting point [°C]
COC(=O)CCC(C)C1CCC2C3C(O)CC4CC(=NNC(N)=S)CCC4(C)C3CCC12C (stereo not shown) [Compound 10, Methyl 3-Thiosemicarbazonyl-7-hydroxychenodeoxycholicate] | > 200 | 142 | > 200 |  |  |  |  |  |  |  | 
CC12CCC3c4ccc(O)cc4CCC3C1CCC2=[N+]1NC(N)=[S+][Pt-2]1([Cl])[Cl] (stereo not shown) [Compound 3, [PtL ^2 Cl 2]] |  |  |  | 39 | obvious cytotoxicity | > 5.1 | 23 | obvious cytotoxicity | > 8.7 | > 200 | 
COC(=O)CCC(C)C1CCC2C3C(=O)CC4CC(=NNC(N)=S)CCC4(C)C3CCC12C (stereo not shown) [Compound 8, Methyl 3-Thiosemicarbazonyl-7-oxochenodeoxycholicate] | > 200 | 96 | > 200 |  |  |  |  |  |  |  | 285 to 286
CC12CCC3c4ccc(O)cc4CCC3C1CCC2=NNC(N)=S (stereo not drawn) [Compound 2, 3β-Hydroxyestron-17-thiosemicarbazone] | 19 | 34 |  |  |  |  |  |  |  |  | 254 to 256
COC(=O)CCC(C)C1CCC2C3CCC4CC(=NNC(N)=S)CCC4(C)C3CC(=O)C12C (stereo not shown) [Compound 13, Methyl 3-Thiosemicarbazonyl-12-oxo-7-deoxycholicate] | > 200 | > 200 | > 200 |  |  |  |  |  |  |  | 125 to 127
CC(=O)Oc1ccc2c(c1)CCC1C2CCC2(C)/C(=N/NC(N)=S)CCC12 (stereo not drawn) [Compound 5, 3β-Acetyloxyestron-17-thiosemicarbazone] | > 200 | 42 | > 200 |  |  |  |  |  |  |  | 248 to 249
